Assay results from patent US11478474B2, “2-(3′-(hydroxymethyl)-1-methyl-5-((5-(2-methyl-4-(oxetan-3-yl)piperazin-1-yl)pyridin-2-yl)amino)-6-oxo-1,6-dihydro-[3,4′-bipyridin]-2′-yl)-7,7-dimethyl-7,8-dihydro-2H-cyclopenta[4,5]pyrrolo[1,2-a]pyrazin-1(6H)-one as a BTK inhibitor” (HUTCHISON MEDIPHARMA LIMITED, priority 2020, dated 2022).
Where two headings read alike, the source gives them in different places.

Assays:
[1] = Study on in vivo pharmacokinetics in mice; conditions: 10 mg/kg
Excerpt: Example 6 Study on In Vivo Pharmacokinetics in Mice
Solutol HS15 was purchased from BASF, Germany, ethanol (anhydrous) was purchased from Nanjing Chemical Reagent Co., Ltd., physiological saline was purchased from Huayu (Wuxi) Pharmaceutical Co., Ltd., dimethyl sulfoxide (DMSO) and sodium carboxymethyl cellulose 800-1200 (CMC-Na) were purchased from Sinopharm Chemical Reagent Co., Ltd.
Preparation of ethanol/Solutol mixed solution (1:1, v/v): taking an appropriate amount of Solutol HS15 in a centrifuge tube and placing in a 37° C. water bath until dissolved, placing on the bench top to room temperature, taking 1 mL of Solutol in a centrifuge tube containing 1 mL of ethanol and mixing well to obtain the mixed solution.
Taking an appropriate amount of stock solution and placing in a blank centrifuge tube, adding an appropriate amount of ethanol/Solutol mixed solution prepared in advance, vortexing, then adding an appropriate amount of physiological saline, and mixing well until a transparent liquid.
3. Administration to Animals and Sample Collection:
Male ICR mice were purchased from Shanghai Lingchang Biotechnology Co., Ltd. 18 mice were randomly divided into intravenous administration group and intragastric administration group. The mice were fasted overnight before administration. The mice were withheld food but allowed to access water freely within 4 hours after administration, and allowed to freely access food and water after 4 hours. After anesthesia with isoflurane, blood was collected from the retroorbital venous plexus and placing in an centrifuge tube containing anticoagulant, and the centrifuge tube was stored in an box containing wet ice until the plasma was centrifuged.
The plasma samples were pre-treated and then analyzed by liquid chromatography-tandem mass spectrometry (LC-MS/MS), the instrument model was API5500. The analytical chromatographic column was Waters XSELECT HSS T3 C18 column (50×2.1 mm, 2.5 μm). In the mobile phases, deionized water containing 0.1% formic acid and 0.1% acetonitrile was used as the aqueous phase and acetonitrile containing 0.1% formic acid was used as the organic phase. The concentrations of the compound in the samples were determined as follows. Firstly, a standard curve was established, and the peak area ratios of the compound 19 to the internal standard in the standard curve were used as indexes. The theoretical concentrations of compound 19 and the peak area ratios of compound 19 to the internal standard were fitted with a quadratic regression equation to obtain the regression equation. The sample concentrations were calculated by measuring the peak area ratio of the compound of the test sample to the internal standard according to the standard curve.

[2] = test system: B cell activation in mouse whole blood induced by anti-IgD antibodies; assay: In vivo efficacy of the inhibitory effect on BTK target (anti-IgD antibody-induced B cell activation in mice whole blood after in vivo administration)
Description: Objects: B cells in mice whole blood were induced and activated by the anti-IgD antibody, and the inhibitory effect of the compound of the present invention on B cell activation in vivo was studied, so as to determine the inhibitory effect of the compound of the present invention on the BTK target in vivo.
Methods: C57BL/6 mice (female, 18-20 g, purchased from Shanghai Lingchang Biotechnology Co., Ltd.) were grouped according to Table 2.
The animals of each group were administered, then were placed in CO2 for anesthesia at designated time points, blood samples were taken from […] via retro-orbital bleeding, and heparin was used for anticoagulation; 90 μL of whole blood was taken from mice of each group, and added to a 96 well culture plate, and anti-mouse IgD antibody (BIO-RAD, Cat #MCA4693) was added to each well to a final concentration of 0.01 μg/μL (respectively for the each drug-treated group and anti-IgD antibody-inducted vehicle group); in addition, 90 μL of whole blood of mice in the vehicle group was taken and added to the 96-well culture plate, and PBS (phosphate buffer, GIBCO, Cat #C20012500BT) was added to each well to a final concentration of 0.01 μg/μL (namely, the vehicle control group); Each group was mixed well and incubated in a 37° C./5% CO2 incubator for 4 hours. In addition, the blood of mice in the drug-treated group was centrifuged to separate plasma for blood concentration analysis.
Calculation for B Cell Activation Ratio: B cell activation ratio=percentage of CD69+CD19+double positive B cells/percentage of CD19+single positive B cells
Calculation for Inhibition Ratio: Inhibition ratio=(percentage of B cell activation ratio in anti-IgD antibody-induced vehicle group-percentage of B cell activation ratio in drug-treated group)/(percentage of B cell activation ratio in anti-IgD antibody-induced vehicle group-percentage of B cell activation ratio in vehicle control group)×100%
All data are represented by mean±standard error. For the comparison between each drug-treated group and the anti-IgD antibody-induced vehicle group, p value was calculated by Graphpad Prism using one-way ANOVA analysis of variance and Dunnett's test, and for the comparison between each drug-treated group, p value was calculated by using unpaired t test.

[3] = male ICR mice, oral (intragastric) administration, plasma
[4] = male ICR mice, oral (intragastric) administration, plasma, 24 h
[5] = mouse, male ICR mice, oral (intragastric) administration, plasma
[6] = mouse, male ICR mice, oral (intragastric) administration, plasma, read-out: Cmax

C[C@H]1CN(C2COC2)CCN1c1ccc(Nc2cc(-c3ccnc(-n4ccn5c6c(cc5c4=O)CC(C)(C)C6)c3CO)cn(C)c2=O)nc1 [Compound 19]
Cmax [1, 3]: 3807 ng/mL | C8 h (plasma concentration at 8 h) ([1]; male ICR mice, oral (intragastric) administration, plasma, 8 h): 555 ng/mL | C24 h (plasma concentration at 24 h) [1, 4]: 8.5 ng/mL | plasma exposure (AUC0-∞) relative to the reference GDC-0853 ([1]; mice, oral administration): about 1.7 times | plasma concentration at 8 h relative to GDC-0853 ([1]; mice, oral administration, 8 h): about 3.9 folds | AUC(0-inf) [1, 5]: 17800 ng·h/mL | half-life [1, 5]: 2.7 h | Cmax [1, 6]: 3810 ng/mL | B cell activation ratio (the proportion of activated B cells to total B cells) ([2]; 5 mg/kg, 16 h after administration, mice whole blood, anti-IgD antibody, mean±standard error): 8.3 ± 1.2 | Inhibition ratio (%) on B cell activation ([2]; 5 mg/kg, 16 hours after administration, mice whole blood, anti-IgD antibody, listed as Compound 19): 80% | Inhibition ratio (%) on B cell activation ([2]; 5 mg/kg, 16 hours after administration, mice whole blood, anti-IgD antibody, listed as compound 19): 80%

C[C@H]1CN(C2COC2)CCN1c1ccc(Nc2cc(-c3ccnc(N4CCn5c(cc6c5CC(C)(C)C6)C4=O)c3CO)cn(C)c2=O)nc1 [GDC-0853, fenebrutinib, reference compound]
Cmax [1, 3]: 4063 ng/mL | C24 h (plasma concentration at 24 h) [1, 4]: <2.4 ng/mL | AUC(0-inf) [1, 5]: 10300 ng·h/mL | half-life [1, 5]: 1.5 h | concentration at 8 h ([1]; mouse, male ICR mice, oral (intragastric) administration, plasma, 8 h, read-out: C8 h (plasma concentration at 8 h)): 143 ng/mL | concentration at 24 h ([1]; mouse, male ICR mice, oral (intragastric) administration, plasma, 24 h, read-out: C24 h (plasma concentration at 24 h)): < 2.4 ng/mL | Cmax [1, 6]: 4060 ng/mL | Inhibition ratio (%) ([2]; 20 mg/kg single oral gavage, 16 h): 9% | B cell activation ratio (the proportion of activated B cells to total B cells) ([2]; 20 mg/kg single oral gavage, 16 h, mean ± standard error): 29.3 ± 6.7 | inhibition ratio on B cell activation ([2]; 20 mg/kg, 16 hours after administration, mice whole blood, anti-IgD antibody): 9%
